Measured values from BigSolDB 2.1.

CC(=O)Nc1ccccc1[N+](=O)[O-] showed a solubility (mole fraction) (in 1,4-dioxane, 288.15 K) of 0.13, a solubility (mole fraction) (in 1,4-dioxane, 293.15 K) of 0.147 and a solubility (mole fraction) (in 1,4-dioxane, 298.15 K) of 0.165. It also gave a solubility (mole fraction) (in 1,4-dioxane, 303.15 K) of 0.186, a solubility (mole fraction) (in 1,4-dioxane, 308.15 K) of 0.211 and a solubility (mole fraction) (in 1,4-dioxane, 313.15 K) of 0.244. For the same compound, the solubility (mole fraction) (in 1,4-dioxane, 318.15 K) was 0.284, the solubility (mole fraction) (in 1,4-dioxane, 323.15 K) was 0.343 and the solubility (mole fraction) (in DMF, 278.15 K) was 0.167. For the same compound, the solubility (mole fraction) (in DMF, 283.15 K) was 0.178, the solubility (mole fraction) (in DMF, 288.15 K) was 0.192 and the solubility (mole fraction) (in DMF, 293.15 K) was 0.213. For the same compound, the solubility (mole fraction) (in DMF, 298.15 K) was 0.238, the solubility (mole fraction) (in DMF, 303.15 K) was 0.266 and the solubility (mole fraction) (in DMF, 308.15 K) was 0.295. It also gave a solubility (mole fraction) (in DMF, 313.15 K) of 0.327, a solubility (mole fraction) (in DMF, 318.15 K) of 0.373 and a solubility (mole fraction) (in DMF, 323.15 K) of 0.426. For the same compound, the solubility (mole fraction) (in NMP, 278.15 K) was 0.195, the solubility (mole fraction) (in NMP, 283.15 K) was 0.215 and the solubility (mole fraction) (in NMP, 288.15 K) was 0.239. It also gave a solubility (mole fraction) (in NMP, 293.15 K) of 0.268, a solubility (mole fraction) (in NMP, 298.15 K) of 0.299 and a solubility (mole fraction) (in NMP, 303.15 K) of 0.33. For the same compound, the solubility (mole fraction) (in NMP, 308.15 K) was 0.367, the solubility (mole fraction) (in NMP, 313.15 K) was 0.404 and the solubility (mole fraction) (in NMP, 318.15 K) was 0.445. It also gave a solubility (mole fraction) (in NMP, 323.15 K) of 0.491, a solubility (mole fraction) (in acetonitrile, 278.15 K) of 0.0156 and a solubility (mole fraction) (in acetonitrile, 283.15 K) of 0.0176. For the same compound, the solubility (mole fraction) (in acetonitrile, 288.15 K) was 0.021, the solubility (mole fraction) (in acetonitrile, 293.15 K) was 0.0248 and the solubility (mole fraction) (in acetonitrile, 298.15 K) was 0.0302. The solubility (mole fraction) (in acetonitrile, 303.15 K) was 0.0387, the solubility (mole fraction) (in acetonitrile, 308.15 K) was 0.0511 and the solubility (mole fraction) (in acetonitrile, 313.15 K) was 0.0675. For the same compound, the solubility (mole fraction) (in acetonitrile, 318.15 K) was 0.0932, the solubility (mole fraction) (in acetonitrile, 323.15 K) was 0.124 and the solubility (mole fraction) (in cyclohexane, 283.15 K) was 0.00106. The solubility (mole fraction) (in cyclohexane, 288.15 K) was 0.00133, the solubility (mole fraction) (in cyclohexane, 293.15 K) was 0.00167 and the solubility (mole fraction) (in cyclohexane, 298.15 K) was 0.00216. For the same compound, the solubility (mole fraction) (in cyclohexane, 303.15 K) was 0.00275, the solubility (mole fraction) (in cyclohexane, 308.15 K) was 0.00357 and the solubility (mole fraction) (in cyclohexane, 313.15 K) was 0.00474. The solubility (mole fraction) (in cyclohexane, 318.15 K) was 0.00634, the solubility (mole fraction) (in cyclohexane, 323.15 K) was 0.0084 and the solubility (mole fraction) (in ethanol, 278.15 K) was 0.0143. The solubility (mole fraction) (in ethanol, 283.15 K) was 0.0163, the solubility (mole fraction) (in ethanol, 288.15 K) was 0.0188 and the solubility (mole fraction) (in ethanol, 293.15 K) was 0.0226. For the same compound, the solubility (mole fraction) (in ethanol, 298.15 K) was 0.0276, the solubility (mole fraction) (in ethanol, 303.15 K) was 0.0323 and the solubility (mole fraction) (in ethanol, 308.15 K) was 0.0382. It also gave a solubility (mole fraction) (in ethanol, 313.15 K) of 0.0447, a solubility (mole fraction) (in ethanol, 318.15 K) of 0.0516 and a solubility (mole fraction) (in ethanol, 323.15 K) of 0.0615. For the same compound, the solubility (mole fraction) (in ethyl acetate, 278.15 K) was 0.0478, the solubility (mole fraction) (in ethyl acetate, 283.15 K) was 0.0545 and the solubility (mole fraction) (in ethyl acetate, 288.15 K) was 0.0662. The solubility (mole fraction) (in ethyl acetate, 293.15 K) was 0.079, the solubility (mole fraction) (in ethyl acetate, 298.15 K) was 0.094 and the solubility (mole fraction) (in ethyl acetate, 303.15 K) was 0.112. It also gave a solubility (mole fraction) (in ethyl acetate, 308.15 K) of 0.135, a solubility (mole fraction) (in ethyl acetate, 313.15 K) of 0.163 and a solubility (mole fraction) (in ethyl acetate, 318.15 K) of 0.21. For the same compound, the solubility (mole fraction) (in ethyl acetate, 323.15 K) was 0.263, the solubility (mole fraction) (in ethylene glycol, 278.15 K) was 0.00464 and the solubility (mole fraction) (in ethylene glycol, 283.15 K) was 0.00517. It also gave a solubility (mole fraction) (in ethylene glycol, 288.15 K) of 0.00599, a solubility (mole fraction) (in ethylene glycol, 293.15 K) of 0.00714 and a solubility (mole fraction) (in ethylene glycol, 298.15 K) of 0.00855. For the same compound, the solubility (mole fraction) (in ethylene glycol, 303.15 K) was 0.0103, the solubility (mole fraction) (in ethylene glycol, 308.15 K) was 0.0126 and the solubility (mole fraction) (in ethylene glycol, 313.15 K) was 0.0155. The solubility (mole fraction) (in ethylene glycol, 318.15 K) was 0.0187, the solubility (mole fraction) (in ethylene glycol, 323.15 K) was 0.0224 and the solubility (mole fraction) (in isobutanol, 278.15 K) was 0.00896. It also gave a solubility (mole fraction) (in isobutanol, 283.15 K) of 0.00984, a solubility (mole fraction) (in isobutanol, 288.15 K) of 0.0115 and a solubility (mole fraction) (in isobutanol, 293.15 K) of 0.0134. The solubility (mole fraction) (in isobutanol, 298.15 K) was 0.0162, the solubility (mole fraction) (in isobutanol, 303.15 K) was 0.0202 and the solubility (mole fraction) (in isobutanol, 308.15 K) was 0.0246. For the same compound, the solubility (mole fraction) (in isobutanol, 313.15 K) was 0.0302, the solubility (mole fraction) (in isobutanol, 318.15 K) was 0.0374 and the solubility (mole fraction) (in isobutanol, 323.15 K) was 0.0483. It also gave a solubility (mole fraction) (in isopropanol, 278.15 K) of 0.00743, a solubility (mole fraction) (in isopropanol, 283.15 K) of 0.00851 and a solubility (mole fraction) (in isopropanol, 288.15 K) of 0.00991. It also gave a solubility (mole fraction) (in isopropanol, 293.15 K) of 0.0121, a solubility (mole fraction) (in isopropanol, 298.15 K) of 0.0151 and a solubility (mole fraction) (in isopropanol, 303.15 K) of 0.0184. For the same compound, the solubility (mole fraction) (in isopropanol, 308.15 K) was 0.0227, the solubility (mole fraction) (in isopropanol, 313.15 K) was 0.0279 and the solubility (mole fraction) (in isopropanol, 318.15 K) was 0.036. For the same compound, the solubility (mole fraction) (in isopropanol, 323.15 K) was 0.0468, the solubility (mole fraction) (in methanol, 278.15 K) was 0.0181 and the solubility (mole fraction) (in methanol, 283.15 K) was 0.021. The solubility (mole fraction) (in methanol, 288.15 K) was 0.0248, the solubility (mole fraction) (in methanol, 293.15 K) was 0.0289 and the solubility (mole fraction) (in methanol, 298.15 K) was 0.0331. It also gave a solubility (mole fraction) (in methanol, 303.15 K) of 0.0394, a solubility (mole fraction) (in methanol, 308.15 K) of 0.0463 and a solubility (mole fraction) (in methanol, 313.15 K) of 0.0558. The solubility (mole fraction) (in methanol, 318.15 K) was 0.0703, the solubility (mole fraction) (in methanol, 323.15 K) was 0.0926 and the solubility (mole fraction) (in n-butanol, 278.15 K) was 0.00975. For the same compound, the solubility (mole fraction) (in n-butanol, 283.15 K) was 0.011, the solubility (mole fraction) (in n-butanol, 288.15 K) was 0.0127 and the solubility (mole fraction) (in n-butanol, 293.15 K) was 0.016. The solubility (mole fraction) (in n-butanol, 298.15 K) was 0.0196, the solubility (mole fraction) (in n-butanol, 303.15 K) was 0.0232 and the solubility (mole fraction) (in n-butanol, 308.15 K) was 0.028. For the same compound, the solubility (mole fraction) (in n-butanol, 313.15 K) was 0.0341, the solubility (mole fraction) (in n-butanol, 318.15 K) was 0.0422 and the solubility (mole fraction) (in n-butanol, 323.15 K) was 0.0529. For the same compound, the solubility (mole fraction) (in n-heptanol, 278.15 K) was 0.00627, the solubility (mole fraction) (in n-heptanol, 283.15 K) was 0.00721 and the solubility (mole fraction) (in n-heptanol, 288.15 K) was 0.00829. For the same compound, the solubility (mole fraction) (in n-heptanol, 293.15 K) was 0.0105, the solubility (mole fraction) (in n-heptanol, 298.15 K) was 0.0129 and the solubility (mole fraction) (in n-heptanol, 303.15 K) was 0.0163. The solubility (mole fraction) (in n-heptanol, 308.15 K) was 0.0209, the solubility (mole fraction) (in n-heptanol, 313.15 K) was 0.0261 and the solubility (mole fraction) (in n-heptanol, 318.15 K) was 0.0337. For the same compound, the solubility (mole fraction) (in n-heptanol, 323.15 K) was 0.042, the solubility (mole fraction) (in n-propanol, 278.15 K) was 0.0129 and the solubility (mole fraction) (in n-propanol, 283.15 K) was 0.0144. It also gave a solubility (mole fraction) (in n-propanol, 288.15 K) of 0.0167, a solubility (mole fraction) (in n-propanol, 293.15 K) of 0.0204 and a solubility (mole fraction) (in n-propanol, 298.15 K) of 0.0245. It also gave a solubility (mole fraction) (in n-propanol, 303.15 K) of 0.0285, a solubility (mole fraction) (in n-propanol, 308.15 K) of 0.0331 and a solubility (mole fraction) (in n-propanol, 313.15 K) of 0.0393. The solubility (mole fraction) (in n-propanol, 318.15 K) was 0.0468, the solubility (mole fraction) (in n-propanol, 323.15 K) was 0.0578 and the solubility (mole fraction) (in water, 278.15 K) was 9.9e-05. For the same compound, the solubility (mole fraction) (in water, 283.15 K) was 0.000128, the solubility (mole fraction) (in water, 288.15 K) was 0.00016 and the solubility (mole fraction) (in water, 293.15 K) was 0.000201. For the same compound, the solubility (mole fraction) (in water, 298.15 K) was 0.000249, the solubility (mole fraction) (in water, 303.15 K) was 0.00032 and the solubility (mole fraction) (in water, 308.15 K) was 0.000412. For the same compound, the solubility (mole fraction) (in water, 313.15 K) was 0.000521, the solubility (mole fraction) (in water, 318.15 K) was 0.000662 and the solubility (mole fraction) (in water, 323.15 K) was 0.000824.
